Where a name gives a salt, the structure may show the parent alone.
Columns and labels:
HCT116 cells = test: Measurement of effect of inhibiting cancer cell proliferation (MTT); type: cell-based, human; settings: Homo sapiens; for inhibition at 100 µM: HCT-116, 100 μM, 48 hours, read-out: Cell Growth Inhibition (%) at 100 μM; for GI50: HCT-116, 48 h
How it was run: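 HCT116 cells (~5,000/well, DMEM with 10% FBS) treated 48 h with compound at 0.39–100 μM, metformin hydrochloride control at 0.1–25 mM. Viability by MTT (3 h, formazan in DMSO, A560) relative to untreated wells; GIC50 from the viability curve, also viability at 100 μM.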

[1] = Solubility in water of hydrochloride and acetate salts; type: physicochemical; settings: content 5 mg/1 ml distilled water, room temperature
Experimental: The solubilities in water of the hydrochlorides prepared in Examples 26, 27, 32, 33, 48, 49, 53 and 54, and the solubilities in water of the acetates prepared in Examples 70 to 77, were compared.
The experimental conditions and methods are described, as follows.
1) 1 ml of distilled water is added to a container including 5 mg of salt at room temperature.
2) The resulting mixture is stirred for 10 minutes, and then kept at room temperature for 1 hour.
3) Undissolved residual salt is recovered and weighed.
4) The ratio of the amount of the recovered salt and the amount of the dissolved salt is calculated.
5) Operations 1) to 4) are repeatedly performed with increasing amount (i.e., 10, 15, 20, 25 and 30 mg) of salt.
The experimental procedures were performed for each of the hydrochlorides of Examples 26, 27, 32, 33, 48, 49, 53 and 54 and the acetates of Examples 70 to 77. The comparative solubilities obtained using the hydrochlorides of Examples 26, 27, 32, 33, 48, 49, 53 and 54 and the acetates of Examples 70 to 77 are listed in the following Table 1.

AMPKα = test: Measurement of AMPK activation effect (AMPKα Thr172 phosphorylation immunoassay) in MCF7 cells; type: cell-based, human; settings: 24 hours; for AMPK activation effect AC150: concentration at which AMPK activation reached 150%
How it was run: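 MCF7 cells in DMEM/10% FBS were treated 24 h with derivatives at 5, 10 and 50 μM (metformin hydrochloride control, 0.05–10 mM). AMPKα Thr172 phosphorylation was measured by immunoassay on 20 μg lysate. AC150 (concentration giving 150% activation) came from concentration–response curves, with activation also reported at fixed concentrations.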

Snail = test: EMT inhibitory effect by inhibition of Snail expression (immunoblotting) in MCF7 cells; type: cell-based, human; settings: MCF7, 48 hours, untreated control = 100%
Experimental: Cells undergoing EMT owing to various cytokines and growth factors can acquire motility and thus move a distance to form tumors in new tissues. Therefore, the metastasis of cancer cells can be inhibited by controlling expression of EMT-related transcription factors to hinder EMT. Based on these facts, the activities of biguanide derivatives that inhibit Snail expression, which is a transcription factor inducing EMT in the MCF7 cell line derived from human breast cancer, were measured and simple experimental methods are described, as follows.
MCF7 cells derived from human breast cancer (commercially available from Korean Cell Line Bank) were cultured in a DMEM medium supplemented with 10% (v/v) fetal bovine serum (commercially available from Gibco Life Technologies (US)), put into a 6-well plate so that the number of cultured cells could amount to approximately 5×10^5 cells per well, and then incubated in an incubator supplied with 5% CO2 (culture temperature: 37° C., pH: 7.0 to 7.4). The culture media were treated with phenformin hydrochloride and the compounds synthesized in the examples at contents of 1 μM and 10 μM, respectively, and then incubated for 48 hours. Metformin hydrochloride was used as the control, and the cells were treated with 1 mM and 10 mM metformin hydrochloride. After 48 hours, the cells were lysed in a cell lysis buffer containing 10 mM Tris HCl (pH7.4), 100 mM NaCl, 1 mM EDTA, 1 mM EGTA, 1 mM NaF, 20 mM Na4P2O7, 2 mM Na3VO4, 1% TritonX-100, 10% glycerol, 0.5% deoxycholate and 1 mM PMSF. Then, 25 μg of the cell lysate was electrophoresized in an SDS-PAGE gel, and then transferred to a […] membrane (commercially available from Amersham Life Science). The membrane reacted with rat monoclonal anti-human Snail (commercially available from Cell signaling Technology) or mouse monoclonal anti-β-actin (commercially available from Santa cruz Biotechnology), and unbound antibodies were removed. In this case, anti-β-actin was used as the antibody to ensure that the amount of proteins loaded into the SDS-PAGE gel is identical. The membrane was reacted again with a secondary antibody, anti-rat IgG (commercially available from Cell signaling Technology) or anti-mouse IgG (commercially available from Santa Cruz Biotechnology). Finally, the antibody bound to the membrane was detected using an ECL Plus system (commercially available from Amersham Life Science). Also, the expression level of Snail with respect to β-actin was analyzed using a Scion image analysis program. Here, when it was assumed that the expression level of the untreated control was 100%, the expression level of the Snail by treatment with the compounds synthesized in the examples was indicated as a percentage (%).

[2] = system: MCF7 cells (breast cancer stem cell, mammosphere); test: Measurement of effect of inhibiting mammosphere formation; type: cell-based, human; settings: MCF7, 8 days; for Number of Mammospheres: size 50 um or more
Excerpt: The cancer stem cells refer to cancer cells that have self-regeneration or differentiation capacity which is characteristically innate to stem cells. Here, the cancer stem cells show resistance to conventional anticancer therapy and poor prognosis. Therefore, the biguanide derivative has an effect of inhibiting cancer recurrence by inhibiting formation and proliferation of cancer stem cells, especially, breast cancer stem cells (mammosphere). Accordingly, the effect of the biguanide derivative of inhibiting breast cancer stem cell (mammosphere) formation was measured in an MCF7 cell line derived from human breast cancer forming mammospheres, and simple experimental methods are described, as follows.
MCF7 cells derived from human breast cancer were cultured (culture temperature: 37° C., pH: 7.0 to 7.4) in a DMEM medium supplemented with 10% (v/v) fetal bovine serum (commercially available from Gibco Life Technologies (US)) so that the MCF7 cells could grow to approximately 80% confluency and used in an experiment to determine an ability to form mammospheres. After MCF7 cells were made to single cells and the number of cell was counted, MCF7 cells were put in to a 24-well plate at 2,000 cells/well. […] Also, a culture media for forming mammospheres was prepared so that a serum-free DMEM/F12 medium could include 2% B27 (commercially available from Invitrogen), 20 ng/ml EGF (commercially available from Sigma), 5 μg/ml insulin (commercially available from Sigma) and 1 μg/ml hydrocortisone (commercially available from Sigma). Cells were cultured in a CO2 incubator for 24 hours and treated with each of the compounds synthesized in the examples at contents of 0.1 μM, 1 μM, 5 μM and 10 μM. Then, the cultured cells were added to the culture media for forming mammospheres so that a final volume of the culture broth could be adjusted to 1 ml. The cells were treated with the same concentrations of phenformin hydrochloride as the control and cultured in a CO2 incubator for 8 days. Thereafter, the mammosphere-forming efficiency and size of the cells were observed. After 8 days, the number of mammospheres having a size of 50 um or more was determined to calculate the mammosphere-forming efficiency (MFE (%)). The MFE (%) is calculated according to the following Equation 1.
When the cells were cultured for 8 days, MFE (%) of the cells on a plate treated with the phenformin hydrochloride and the compounds synthesized in the examples was compared with MFE (%) of the cells on a plate that was not treated with the compounds. The results are listed as the mammosphere formation inhibition rate (%) in the following Table 4, and the mammosphere-forming efficiencies of the respective compounds are shown in FIG. 1.

Compound: Cl.N=C(NC(=N)N1CCCCC1)Nc1ccc(C(F)(F)F)c(F)c1 [Example 49, N1-piperidine-N5-(3-fluoro-4-trifluoromethyl)phenyl biguanide hydrochloride]
- inhibition at 100 µM (HCT116 cells): 96.5%
- GI50 (HCT116 cells): 5.2 µM
- Solubility in water (%), hydrochloride salt [1]: 20%
- AMPK activation effect at 10 μM (%) (AMPKα; relative to untreated cells): 258%
- AMPK activation effect AC150 (AMPKα): 2.7 µM
- melting point: 263 to 264 °C

Compound: [H]/N=C(/N)N/C(=N/[H])NCCc1ccccc1 [Phenformin hydrochloride, reference compound]
- Snail Expression Rate (%) (Snail; 1 μM): 117.6%
- Snail Expression Rate (%) (Snail; 10 μM): 53.8%
- MFE (%) (mammosphere-forming efficiency) ([2]; 0.1 μM): 4.2%
- Number of Mammospheres ([2]; 0.1 μM): 84 ± 2.8
- MFE (%) (mammosphere-forming efficiency) ([2]; 1 μM): 3.9%
- Number of Mammospheres ([2]; 1 μM): 79 ± 0.7
- MFE (%) (mammosphere-forming efficiency) ([2]; 5 μM): 5.2%
- Number of Mammospheres ([2]; 5 μM): 103 ± 1.4
- MFE (%) (mammosphere-forming efficiency) ([2]; 10 μM): 5.8%
- Number of Mammospheres ([2]; 10 μM): 116 ± 19.1
- inhibition at 0.1 µM ([2]; Homo sapiens, 192 h, 0.1 μM, vs untreated, read-out: Mammosphere formation inhibition rate (%)): 18.4%
- inhibition at 1 µM ([2]; Homo sapiens, 192 h, 1 μM, vs untreated, read-out: Mammosphere formation inhibition rate (%)): 23.8%
- inhibition at 5 µM ([2]; Homo sapiens, 192 h, 5 μM, vs untreated, read-out: Mammosphere formation inhibition rate (%)): 0%
- inhibition at 10 µM ([2]; Homo sapiens, 192 h, 10 μM, vs untreated, read-out: Mammosphere formation inhibition rate (%)): -12.1%

Compound: Cl.N=C(NC(=N)N1CCCC1)Nc1ccc(OC(F)(F)F)c(F)c1 [Example 53, N1-pyrrolidine-N5-(3-fluoro-4-trifluoromethoxy)phenyl biguanide hydrochloride]
- inhibition at 100 µM (HCT116 cells): 101%
- GI50 (HCT116 cells): 7.6 µM
- Solubility in water (%), hydrochloride salt [1]: 20%
- AMPK activation effect at 10 μM (%) (AMPKα; relative to untreated cells): 315%
- AMPK activation effect AC150 (AMPKα): 5.0 µM
- melting point: 278 to 279 °C

Compound: CN(C)C(=N)N=C(N)N [Metformin hydrochloride, reference compound]
- Snail Expression Rate (%) (Snail; 1 mM): 70.3%
- Snail Expression Rate (%) (Snail; 10 mM): 13.6%
- inhibition at 100 µM (HCT116 cells): 1.8%
- AMPK activation effect at 50 μM (%) (AMPKα; 50 μM, relative to untreated cells): 130.0%
- AMPK activation effect AC150 (AMPKα): 188.3 µM

Compound: Cl.N=C(NC(=N)N1CCCCC1)Nc1ccc(OC(F)(F)F)cc1 [Example 33, N1-piperidine-N5-(4-trifluoromethoxy)phenyl biguanide hydrochloride]
- inhibition at 100 µM (HCT116 cells): 97.9%
- GI50 (HCT116 cells): 7.9 µM
- Solubility in water (%), hydrochloride salt [1]: 50%
- AMPK activation effect at 10 μM (%) (AMPKα; relative to untreated cells): 538%
- AMPK activation effect AC150 (AMPKα): 1.4 µM
- melting point: 277.3 °C

Compound: Cl.N=C(NC(=N)N1CCCC1)Nc1ccc(C(F)(F)F)c(F)c1 [Example 48, N1-pyrrolidine-N5-(3-fluoro-4-trifluoromethyl)phenyl biguanide hydrochloride]
- inhibition at 100 µM (HCT116 cells): 101%
- GI50 (HCT116 cells): 9.3 µM
- Solubility in water (%), hydrochloride salt [1]: 80%
- AMPK activation effect at 10 μM (%) (AMPKα; relative to untreated cells): 299%
- AMPK activation effect AC150 (AMPKα): 2.5 µM
- melting point: 253 to 254 °C

From US9540325B2, “N1-cyclic amine-N5-substituted phenyl biguanide derivatives, methods of preparing the same and pharmaceutical composition comprising the same” (Immunomet Therapeutics, Inc., priority 2011, dated 2017)
